In ChEMBL document CHEMBL5728660, “Monosaccharide amine and 3-nitro-2-phenyl-2H-chromene based inhibitors of glucose kinases” (2021):

Assay: enzyme-inhibition screening assay: The 16 compounds showing substantial inhibition against TcGlcK at compound concentrations of 20 μM were then examined in a confirmatory assay in which the amino sugar analogues were at a concentration of 20 μM and were tested against the assay's only coupling enzyme, G6PDH, to verify enzyme activity; the assay was performed in quadruplicate. […] These confirmed hits included representatives from all three monosaccharide scaffolds tested (i.e., D-GlcN, D-ManN, and D-GalN).

O=C(N[C@H]1C(O)O[C@H](CO)[C@@H](O)[C@@H]1O)c1ccccc1 (stereo partly specified)
IC50: 16.1 µM
